Source: patent publication US6759207B2, “Fluorogenic or fluorescent reporter molecules and their applications for whole-cell fluorescence screening assays for caspases and other enzymes and the use thereof” (Cytovia, Inc., priority 1997, dated 2004)

Key:
recombinant CPP32 = biological target: T1, recombinant CPP32 (Homo sapiens, UniProt P42574); assay: Fluorometric enzyme assay, cleavage of substrate by recombinant CPP32; format: biochemical; conditions: for efficiency as substrate for CPP32: summary of Table 4; for CPP32 Vmax: 1-100 μM substrate, 37° C.
T1 construct: made in house; host or cells: Sf9 insect cells, baculovirus vector
T1 sequence (P42574 29-175 limits assumed): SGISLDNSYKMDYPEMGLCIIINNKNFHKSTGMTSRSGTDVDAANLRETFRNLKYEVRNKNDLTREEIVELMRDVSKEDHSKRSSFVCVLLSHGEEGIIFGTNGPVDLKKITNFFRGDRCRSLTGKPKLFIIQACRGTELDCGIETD
T1 sequence (P42574 176-277 limits assumed): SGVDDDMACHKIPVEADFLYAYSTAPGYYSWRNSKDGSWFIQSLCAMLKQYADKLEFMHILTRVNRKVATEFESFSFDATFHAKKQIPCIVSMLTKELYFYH
Protocol: (§1) The activities of N-(Z-VD)-N′-acetyl-Rhodamine 110, N-(Z-VAD)-N′-acetyl-Rhodamine 110, N-(Z-DEVD)-N′-acetyl-Rhodamine 110 SEQ ID NO:5, N-(Z-YVAD)-N-acetyl-Rhodamine 110 SEQ ID NO:2, (Z-VAD)2-Rhodamine 110 and (Z-YVAD)2-Rhodamine 110 SEQ ID NO:2 as synthetic substrates for recombinant CPP32 and ICE were measured in a fluorometric enzyme assay. […] See, Webb, N. R. et al., “Expression of proteins using recombinant Baculovirus,” Techniques 2:173-188 (1990). Cleavage of the synthetic substrates by the enzyme results in a fluorescent signal which is read in a spectrofluorometer or in a fluorometric microtiter plate reader. Using this assay, the Km and Vmax values were determined for each substrate with either CPP32 or ICE.
(§2) CPP32 and ICE dependent substrate cleavage was measured using the following buffer conditions: 100 mM HEPES pH 7.5, with 10% sucrose, 1% CHAPS, 5 mM glutathione, and 1-100 μM test substrate. Nonspecific enzyme cleavage was determined with the use of the specific CPP32 and ICE inhibitors consisted of an oligomer with the sequence Asp-Glu-Val-Asp or Tyr-Val-Ala-Asp, respectively, with an aldehyde group conjugated to the C-terminus. The assay for enzyme activity was typically carried out at 37° C. for 60 minutes.

recombinant ICE = biological target: T2, recombinant ICE (Homo sapiens, UniProt P29466); assay: Fluorometric enzyme assay, cleavage of substrate by recombinant ICE; format: biochemical; conditions: for ICE Vmax / Km: 1-100 μM substrate, 37° C.; for Km: NA = no activity observed at 1-100 μM substrate, 3 h incubation; for efficiency as substrate for ICE: summary of Table 4
T2 construct: made in house; host or cells: Sf9 insect cells, baculovirus vector
T2 sequence (P29466 120-297 limits assumed): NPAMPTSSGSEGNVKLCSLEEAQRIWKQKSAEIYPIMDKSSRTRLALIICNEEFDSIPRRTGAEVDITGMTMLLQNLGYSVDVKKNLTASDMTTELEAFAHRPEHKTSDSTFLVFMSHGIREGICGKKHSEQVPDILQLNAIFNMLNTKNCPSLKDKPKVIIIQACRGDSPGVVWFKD
T2 sequence (P29466 317-404 limits assumed): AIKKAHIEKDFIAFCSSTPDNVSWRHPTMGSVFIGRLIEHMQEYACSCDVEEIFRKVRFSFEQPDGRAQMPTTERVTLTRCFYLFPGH
Protocol: as §1, §2

[1] = tested on: apoptotic HL-60 cell lysates; assay: Cleavage of caspase-3 substrates by apoptotic HL-60 cell lysates; format: biochemical; conditions: 10 μM or 50 μM substrate, 37° C., vinblastine treated HL-60 cell lysates
Protocol: (§3) The caspase substrates were assayed by recombinant caspase-3 and by lysates prepared from apoptotic HL-60 cells. The assays were carried out at 37° C. in 96-well plates in a 100 μL incubation containing 30 μL of caspase-3 preparation or cell lysate, 10 μM or 50 μM of the substrate, and caspase assay buffer (40 mM 1,4-piperazinebis(ethansulfonic acid) (PIPES, Aldrich Chemical Company) pH 7.2; 100 mM NaCl; 10% sucrose; 0.1% CHAPS; 1 mM EDTA; 10 mM DTT). At the end of the incubation period, the fluorescence was measured on a Bio-Tek FL500 fluorescence microplate reader using excitation and emission wavelengths of 485 and 530 nm, respectively. Two different controls were run: 1) an enzyme blank consisting of samples containing substrate, but without enzyme or cell lysate; 2) an inhibitor control, consisting of samples which contained the caspase inhibitor, Ac-DEVD-CHO (f.c., 10 μM).

[2] = biological target: T3, recombinant human caspase-3 (Homo sapiens, UniProt P42574); assay: Cleavage of caspase-3 substrates by recombinant human caspase-3; format: biochemical; conditions: 10 μM or 50 μM substrate, 37° C.
T3 sequence (P42574 29-175 limits assumed): T1 sequence (P42574 29-175 limits assumed)
T3 sequence (P42574 176-277 limits assumed): T1 sequence (P42574 176-277 limits assumed)
Protocol: as §3

[3] = Fluorescence of modified Rhodamine dyes (spectrometry and spectrofluorometry); format: physicochemical
Protocol: Modified Rhodamine dyes were evaluated using both conventional spectrometry and spectrofluorometry. For both types of analysis the dyes were dissolved in either methanol or 50 mM Tris at final dye concentrations ranging from 10 nM to 100 μM. An absorbance spectrum from wavelengths of 200 nm to 700 nm was determined for each dye using a Beckman DU-7000 spectrophotometer. The dyes all had absorbance peaks at around 470 to 480 nm. This wavelength was chosen as the fluorescence excitation wavelength and a full fluorescence emission spectrum was determined using a Hitachi F-2000 spectrofluorometer. For each dye, the emission peak was around 520 nm and the fluorescent output was measured under the conditions tested (see Table 1).

HL-60 cells = assay: Uptake and retention of modified Rhodamine dyes by HL-60 cells (epifluorescence microscopy); format: cell-based; conditions: 10 μM or 50 μM dye; for staining of HL-60 cells: 37° C., serum-free Iscove's medium; for leakage of the dye into the medium / retention in cells: after washing
Protocol: HL-60 cells were placed in 5 ml of Iscove's medium (without serum or phenol-red) containing 10 μM or 50 μM N-octyloxycarbonyl-Rhodamine 110, N-decyloxycarbonyl-Rhodamine-110, N-dodecyloxycarbonyl-Rhodamine-110, N-hexyloxycarbonyl-Rhodamine-110, N-(ethylthio)carbonyl-Rhodamine 110 or Rhodamine 110. The cells were incubated for varying times at 37° C. in a CO2 incubator, recovered by centrifugation, and washed in 50 mL of ice-cold medium. The cells were re-centrifuged and the final pellet was resuspended in 50 μL of fresh medium. Aliquots of each cell suspension were placed in microslides and viewed on a Nikon inverted microscope with epifluorescent illumination.

Compound | efficiency as substrate for CPP32 (recombinant CPP32) | ICE Vmax (recombinant ICE) [nmol/min] | Km (recombinant ICE) [µM] | efficiency as substrate for ICE (recombinant ICE) | Cleavage by Apoptotic Lysates [1] | Cleavage by Caspase-3 [2] | other results
CC(C)[C@H](NC(=O)OCc1ccccc1)C(=O)N[C@@H](C)C(=O)N[C@@H](CC(=O)O)C(=O)Nc1ccc2c(c1)Oc1cc(NC(=O)[C@H](CC(=O)O)NC(=O)[C@H](C)NC(=O)[C@@H](NC(=O)OCc3ccccc3)C(C)C)ccc1C21OC(=O)c2ccccc21 [(Z-VAD)2-Rhodamine 110, (Z-Val-Ala-Asp)2-Rhodamine 110] | not for CPP32 | 9 | 21 | efficient substrates |  |  | 
CC(C)[C@H](NC(=O)[C@H](Cc1ccc(O)cc1)NC(=O)OCc1ccccc1)C(=O)N[C@@H](C)C(=O)N[C@@H](CC(=O)O)C(=O)Nc1ccc2c(c1)Oc1cc(NC(=O)[C@H](CC(=O)O)NC(=O)[C@H](C)NC(=O)[C@@H](NC(=O)[C@H](Cc3ccc(O)cc3)NC(=O)OCc3ccccc3)C(C)C)ccc1C21OC(=O)c2ccccc21 [(Z-YVAD)2-Rhodamine 110, (Z-Tyr-Val-Ala-Asp)2-Rhodamine 110] | not for CPP32 | 14 | 6 | efficient substrates |  |  | 
CC(=O)Nc1ccc2c(c1)Oc1cc(NC(=O)[C@H](CC(=O)O)NC(=O)[C@@H](NC(=O)[C@H](CCC(=O)O)NC(=O)[C@H](CC(=O)O)NC(=O)OCc3ccccc3)C(C)C)ccc1C21OC(=O)c2ccccc21 (stereo partly drawn) [N-(Z-DEVD)-N′-Ac-Rhodamine 110, N-(Z-Asp-Glu-Val-Asp)-N′-acetyl-Rhodamine 110] | efficient substrate | 9 | 12 | efficient substrate |  |  | CPP32 Vmax (recombinant CPP32): 160 nmol/min
CC(=O)Nc1ccc2c(c1)Oc1cc(NC(=O)C(CC(=O)O)NC(=O)C(C)NC(=O)C(NC(=O)OCc3ccccc3)C(C)C)ccc1C21OC(=O)c2ccccc21 (stereo not drawn) [N-(Z-VAD)-N′-Ac-Rhodamine 110, N-(Z-Val-Ala-Asp)-N′-acetyl-Rhodamine 110] | not for CPP32 | 4 | 70 | efficient substrates |  |  | 
CC(=O)Nc1ccc2c(c1)Oc1cc(NC(=O)C(CC(=O)O)NC(=O)C(NC(=O)OCc3ccccc3)C(C)C)ccc1C21OC(=O)c2ccccc21 (centres unmarked) [N-(Z-VD)-N′-Ac-Rhodamine 110, N-(Z-Val-Asp)-N′-acetyl-Rhodamine 110] | efficient substrate |  |  | not for ICE |  |  | CPP32 Vmax (recombinant CPP32): 11 nmol/min
CC(=O)Nc1ccc2c(c1)Oc1cc(NC(=O)[C@H](CC(=O)O)NC(=O)[C@H](C)NC(=O)[C@@H](NC(=O)[C@H](Cc3ccc(O)cc3)NC(=O)OCc3ccccc3)C(C)C)ccc1C21OC(=O)c2ccccc21 (stereo partly drawn) [N-(Z-YVAD)-N′-Ac-Rhodamine 110, N-(Z-Tyr-Val-Ala-Asp)-N′-acetyl-Rhodamine 110] | not for CPP32 | 96 | 32 | efficient substrates |  |  | 
CCSC(=O)Nc1ccc2c(c1)Oc1cc(NC(=O)[C@H](CC(=O)O)NC(=O)[C@@H](NC(=O)[C@H](CCC(=O)O)NC(=O)[C@H](CC(=O)O)NC(C)=O)C(C)C)ccc1C21OC(=O)c2ccccc21 (stereo partly drawn) [N-Ac-DEVD-N′-(ethylthio)carbonyl-R110, N-(Ac-Asp-Glu-Val-Asp)-N′-(ethylthio)carbonyl-Rhodamine 110] |  |  |  |  | Good | Good | 
CCOC(=O)Nc1ccc2c(c1)Oc1cc(NC(=O)[C@H](CC(=O)O)NC(=O)[C@@H](NC(=O)[C@H](CCC(=O)O)NC(=O)[C@H](CC(=O)O)NC(C)=O)C(C)C)ccc1C21OC(=O)c2ccccc21 (stereo partly drawn) [N-Ac-DEVD-N′-ethoxycarbonyl-R110, N-(Ac-Asp-Glu-Val-Asp)-N′-ethoxycarbonyl-Rhodamine 110] |  |  |  |  | Good | Good | 
CCCCCCOC(=O)Nc1ccc2c(c1)Oc1cc(NC(=O)[C@H](CC(=O)O)NC(=O)[C@@H](NC(=O)[C@H](CCC(=O)O)NC(=O)[C@H](CC(=O)O)NC(C)=O)C(C)C)ccc1C21OC(=O)c2ccccc21 (stereo partly drawn) [N-Ac-DEVD-N′-hexyloxycarbonyl-R110, N-(Ac-Asp-Glu-Val-Asp)-N′-hexyloxycarbonyl-Rhodamine-110] |  |  |  |  | Good | Good | 
CCCCCCOC(=O)Nc1ccc2c(c1)Oc1cc(N)ccc1C21OC(=O)c2ccccc21 (centres unmarked) [N-Hexyloxycarbonyl-Rhodamine 110, N-Hexyloxycarbonyl-Rhodamine-110] |  |  |  |  |  |  | Peak Emission Wavelength ([3]; Test Conc. 0.1 μM, MeOH): 520 nm; Peak Excitation Wavelength ([3]; Test Conc. 0.1 μM, MeOH): 465 nm; Signal Amplitude ([3]; Test Conc. 0.1 μM, MeOH): 109; staining of HL-60 cells (HL-60 cells): stained HL-60 cells less intensely; leakage of the dye into the medium / retention in cells (HL-60 cells): still well-retained
CCCCCCCCOC(=O)Nc1ccc2c(c1)Oc1cc(N)ccc1C21OC(=O)c2ccccc21 (centres unmarked) [N-Octyloxycarbonyl-Rhodamine 110] |  |  |  |  |  |  | Peak Emission Wavelength ([3]; Test Conc. 1 μM, MeOH): 520 nm; Peak Excitation Wavelength ([3]; Test Conc. 1 μM, MeOH): 470 nm; Signal Amplitude ([3]; Test Conc. 1 μM, MeOH): 850; staining of HL-60 cells (HL-60 cells): stained HL-60 cells intensely; leakage of the dye into the medium / retention in cells (HL-60 cells): almost no leakage of the dye into the medium
CCOC(=O)Nc1ccc2c(c1)Oc1cc(NC(=O)[C@H](CC(=O)O)NC(=O)[C@@H](NC(=O)[C@H](CCC(=O)O)NC(=O)[C@H](CC(=O)O)NC(=O)OCc3ccccc3)C(C)C)ccc1C21OC(=O)c2ccccc21 (stereo partly drawn) [N-Z-DEVD-N′-ethoxycarbonyl-R110, N-(Cbz-Asp-Glu-Val-Asp)-N′-ethoxycarbonyl-Rhodamine 110] |  |  |  |  | Good | Good | 
Cl.N=c1ccc2c(-c3ccccc3C(=O)O)c3ccc(N)cc3oc-2c1 [Rhodamine 110, reference compound] |  |  |  |  |  |  | Peak Emission Wavelength ([3]; Test Conc. 0.01 μM, Tris): 520 nm; Peak Excitation Wavelength ([3]; Test Conc. 0.01 μM, Tris): 490 nm; Signal Amplitude ([3]; Test Conc. 0.01 μM, Tris): 284; staining of HL-60 cells (HL-60 cells): low intensity of cellular staining; leakage of the dye into the medium / retention in cells (HL-60 cells): quickly leaked out of the cells
